The target in test [1] is T1, Upstate Src (p60^c-src, partially purified) (Homo sapiens, UniProt P12931).
T1 construct: purchased UBI, Upstate Biotech, Inc
Nature of the test: SRC-Inhibitor-Assay (time-resolved fluorescence), Src. It counts as biochemical. As to conditions: ATP 5 μM, peptide 10 μM, enzyme 2.5 U/mL, 15 min pre-incubation at 15° C. An excerpt: (§1) The activity of the compounds according to this invention as inhibitors for the src-family tyrosine kinases was shown by using the following assay.
(§2) SRC-Inhibitor-Assay Parameters:
(§3) Eu-labelled phosphotyrosine antibody:—for Lck Cisbio Mab PT66-K, • for Src EG&G Wallac PT66 Eu-W1024 (all commercially available).
(§4) Peptides: Ro: NH2-A-E-E-E-I-Y-G-E-F-E-A-K-K-K-K-CONH2, and • Ja133-Ro: Ja133-G-Aminocaprylic acid-A-E-E-E-I-Y-G-E-F-E-A-K-K-K-K-CONH2, wherein Ja133 is LightCycler-Red 640-N-hydroxy succinimide ester; • whereby both peptides were synthesized by an optimized solid phase peptide synthesis protocol (Merrifield, Fed. Proc. Fed. Amer. Soc. Exp. Biol. 21 (1962) 412) on a Zinsser SMP350 peptide synthesizer. Shortly, the peptide was assembled on 160 mg (22.8 μmol scale) of a Rink-Linker modified polystyrene solid phase by repeatedly conjugating an twenty fold excess of amino acids each protected by temporary piperidine labile Fmoc- and permanent acid labile tert-Bu-, BOC- and O-tert-Bu-groups depending on the side chain function. The substrate sequence AEEEIYGEFEAKKKK was N-terminal additionally mounted with the spacer amino acids Aminocaprylic acid and Glycin. After cleavage of the N-terminal temporary protecting group the still attached and protected peptide was labeled with a 1.5 fold amount of LightCycler-Red 640-N-hydroxy succinimide ester (purchased from Roche Diagnostics GmbH) and triethylamine. After 3 hrs. the resin was washed with Dimethylformamide and Isopropanol until the eluates of the blue resin got colourless. […] The substrate was finally isolated by a preparative reverse phase HPLC purification. The purification yielded 12.2 mg RP-HPLC single peak pure blue material (lyophilisate). The identity was proven by MALDI mass spectroscopy [2720.0].
(§5) Enzymes: Upstate Lck (p56^lck, active), Upstate Src (p60^c-src, partially purified) were purchased from UBI, Upstate Biotech, Inc.
(§6) Time-resolved Fluorescence Assay: Reader: Perkin Elmer, Wallac Viktor 1420-040 multilabel counter; Liquid handling system: Beckman Coulter, Biomek 2000.
(§7) ATP, Tween™ 20, 4-(2-hydroxyethyl)-l-piperazineethanesulfonic acid (HEPES) were purchased from Roche Molecular Biochemicals, MgCl2 and MnCl2 were purchased from Merck Eurolab, Tris(2-carboxyethyl)phosphine hydrochloride (TCEP) was purchased from Pierce, 384 Well low volume fluorescence plates was purchased from Falcon.
(§8) At first the enzyme is pre-incubated for 15 min. at 15° C. in aqueous solution with corresponding amounts of inhibitors according to this invention. Then the phosphorylation reaction is started by adding a reaction mixture, containing ATP, Peptide and PT66, and subsequent shaking. The proceeding of this reaction is immediately monitored using time resolved fluorescence spectroscopy in a suitable well plate reader.
(§9) The IC50-values can be obtained from the reaction rates by using a non-linear curve fit (XLfit software (ID Business Solution Ltd., Guilford, Surrey, UK))

The target of test [2] is T2, Upstate Lck (p56^lck, active) (Homo sapiens, UniProt P06239).
T2 construct: purchased UBI, Upstate Biotech, Inc
T2 sequence (P06239 whole entry): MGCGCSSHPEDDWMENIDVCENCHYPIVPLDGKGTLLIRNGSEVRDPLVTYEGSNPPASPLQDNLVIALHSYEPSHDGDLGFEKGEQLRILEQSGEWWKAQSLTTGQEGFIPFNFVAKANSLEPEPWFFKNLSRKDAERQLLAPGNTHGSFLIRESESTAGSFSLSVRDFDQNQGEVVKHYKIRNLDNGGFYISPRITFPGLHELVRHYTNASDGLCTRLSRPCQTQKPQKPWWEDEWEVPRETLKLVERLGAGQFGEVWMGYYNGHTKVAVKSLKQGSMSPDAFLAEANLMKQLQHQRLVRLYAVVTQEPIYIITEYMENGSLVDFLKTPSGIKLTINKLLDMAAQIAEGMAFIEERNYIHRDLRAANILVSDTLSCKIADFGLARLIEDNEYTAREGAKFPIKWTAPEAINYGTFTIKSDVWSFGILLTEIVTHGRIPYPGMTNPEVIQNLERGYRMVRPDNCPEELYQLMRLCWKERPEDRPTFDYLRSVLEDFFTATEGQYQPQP
Nature of the test: SRC-Inhibitor-Assay (time-resolved fluorescence), Lck. It counts as biochemical. As to conditions: ATP 5 μM, peptide 10 μM, enzyme 2.5 U/mL, 15 min pre-incubation at 15° C.
Source text: as §1, §2, §3, §4, §5, §6, §7, §8, §9

For orientation: IC50 means the concentration needed to halve the response being measured. High values mean weaker potency, low ones greater potency.

T1 sequence (P12931 whole entry): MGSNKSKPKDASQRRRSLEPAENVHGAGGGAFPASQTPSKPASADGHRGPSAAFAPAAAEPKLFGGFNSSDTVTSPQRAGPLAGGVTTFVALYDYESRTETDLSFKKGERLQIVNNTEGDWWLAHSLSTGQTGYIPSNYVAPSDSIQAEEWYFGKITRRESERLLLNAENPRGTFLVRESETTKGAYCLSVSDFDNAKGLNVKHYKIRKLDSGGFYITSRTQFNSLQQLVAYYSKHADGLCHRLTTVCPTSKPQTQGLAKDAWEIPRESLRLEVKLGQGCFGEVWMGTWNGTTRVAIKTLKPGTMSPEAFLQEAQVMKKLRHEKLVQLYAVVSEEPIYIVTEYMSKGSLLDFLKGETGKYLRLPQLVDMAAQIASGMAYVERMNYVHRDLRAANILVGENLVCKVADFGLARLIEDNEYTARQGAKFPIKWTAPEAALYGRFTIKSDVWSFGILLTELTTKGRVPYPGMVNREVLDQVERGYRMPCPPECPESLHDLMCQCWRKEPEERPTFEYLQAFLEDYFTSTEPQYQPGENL

`COCCOc1cccc(-c2cc3cc(NCc4ccccc4)cnc3[nH]2)c1` [Example 2-1, Benzyl-{2-[3-(2-methoxy-ethoxy)-phenyl]-1H-pyrrolo[2,3-b]pyridin-5-yl}-amine]: the IC50 in test [1] lay in the range of 500 to 1500 nM; in test [2] it was 100 to 1000 nM.
With `Cc1ccccc1CNc1cnc2[nH]c(-c3ccccc3)cc2c1` [Example 2-4, (2-Methyl-benzyl)-(2-phenyl-1H-pyrrolo[2,3-b]pyridin-5-yl)-amine], the IC50 in test [1] is 10 to 500 nM; in test [2] it was 100 to 1000 nM.
Taken in the same sequence, the figures for `CC(=O)Nc1ccc(-c2cc3cc(NCc4ccccc4C)cnc3[nH]2)cc1` [Example 2-8, N-{4-[5-(2-Methyl-benzylamino)-1H-pyrrolo[2,3-b]pyridin-2-yl]-phenyl}-acetamide] were 10 to 500 nM and 100 to 1000 nM.
On to `CC(=O)Nc1cccc(-c2cc3cc(NCc4ccccc4)cnc3[nH]2)c1` [Example 2-5, N-[3-(5-Benzylamino-1H-pyrrolo[2,3-b]pyridin-2-yl)-phenyl]-acetamide], for which the IC50 in test [1] was 10 to 500 nM; in test [2], 100 to 1000 nM.
In the same order, the values of `CC(=O)Nc1cccc(-c2cc3cc(NCc4ccccc4C)cnc3[nH]2)c1` [Example 2-6, N-{3-[5-(2-Methyl-benzylamino)-1H-pyrrolo[2,3-b]pyridin-2-yl]-phenyl}-acetamide] are 31 nM and 223 nM.
With `c1ccc(CNc2cnc3[nH]c(-c4ccccc4)cc3c2)cc1` [Example 2-3, Benzyl-(2-phenyl-1H-pyrrolo[2,3-b]pyridin-5-yl)-amine], the values for the IC50 in test [1] and in test [2] were 10 to 500 nM and 1000 to 5000 nM, respectively.
In the same order, the values of `CC(Nc1cnc2[nH]c(-c3ccccc3)nc2c1)c1ccccc1` (stereo not drawn) [Example 1-1, (1-Phenyl-ethyl)-(2-phenyl-3H-imidazo[4,5-b]pyridin-6-yl)-amine] are 500 to 1500 nM and 1000 to 5000 nM.
Take `CC(=O)Nc1ccc(-c2cc3cc(NCc4ccccc4)cnc3[nH]2)cc1` [Example 2-7, N-[4-(5-Benzylamino-1H-pyrrolo[2,3-b]pyridin-2-yl)-phenyl]-acetamide]: the IC50 was 10 to 500 nM in test [1] and 100 to 1000 nM in test [2].
For the molecule `COCCOc1cccc(-c2cc3cc(NCc4ccccc4C)cnc3[nH]2)c1` [Example 2-2, {2-[3-(2-Methoxy-ethoxy)-phenyl]-1H-pyrrolo[2,3-b]pyridin-5-yl}-(2-methyl-benzyl)-amine], the IC50 in test [1] was determined as 131 nM; in test [2] it was 757 nM.

For the origin of these results see patent US7776878B2, “Heterocyclic benzylamino derivatives, their manufacture and use as pharmaceutical agents” (Hoffmann-La Roche Inc., priority 2005, dated 2010).
